Read-outs that look alike come from different tables or passages of the source.
How the values were obtained:
Nav1.7 [1] = molecular target: T1, Nav1.7 (Homo sapiens, UniProt Q15858); experiment: cell-based
Target sequence in this assay (Q15858 other isoform, or with tags, fused parts or gaps): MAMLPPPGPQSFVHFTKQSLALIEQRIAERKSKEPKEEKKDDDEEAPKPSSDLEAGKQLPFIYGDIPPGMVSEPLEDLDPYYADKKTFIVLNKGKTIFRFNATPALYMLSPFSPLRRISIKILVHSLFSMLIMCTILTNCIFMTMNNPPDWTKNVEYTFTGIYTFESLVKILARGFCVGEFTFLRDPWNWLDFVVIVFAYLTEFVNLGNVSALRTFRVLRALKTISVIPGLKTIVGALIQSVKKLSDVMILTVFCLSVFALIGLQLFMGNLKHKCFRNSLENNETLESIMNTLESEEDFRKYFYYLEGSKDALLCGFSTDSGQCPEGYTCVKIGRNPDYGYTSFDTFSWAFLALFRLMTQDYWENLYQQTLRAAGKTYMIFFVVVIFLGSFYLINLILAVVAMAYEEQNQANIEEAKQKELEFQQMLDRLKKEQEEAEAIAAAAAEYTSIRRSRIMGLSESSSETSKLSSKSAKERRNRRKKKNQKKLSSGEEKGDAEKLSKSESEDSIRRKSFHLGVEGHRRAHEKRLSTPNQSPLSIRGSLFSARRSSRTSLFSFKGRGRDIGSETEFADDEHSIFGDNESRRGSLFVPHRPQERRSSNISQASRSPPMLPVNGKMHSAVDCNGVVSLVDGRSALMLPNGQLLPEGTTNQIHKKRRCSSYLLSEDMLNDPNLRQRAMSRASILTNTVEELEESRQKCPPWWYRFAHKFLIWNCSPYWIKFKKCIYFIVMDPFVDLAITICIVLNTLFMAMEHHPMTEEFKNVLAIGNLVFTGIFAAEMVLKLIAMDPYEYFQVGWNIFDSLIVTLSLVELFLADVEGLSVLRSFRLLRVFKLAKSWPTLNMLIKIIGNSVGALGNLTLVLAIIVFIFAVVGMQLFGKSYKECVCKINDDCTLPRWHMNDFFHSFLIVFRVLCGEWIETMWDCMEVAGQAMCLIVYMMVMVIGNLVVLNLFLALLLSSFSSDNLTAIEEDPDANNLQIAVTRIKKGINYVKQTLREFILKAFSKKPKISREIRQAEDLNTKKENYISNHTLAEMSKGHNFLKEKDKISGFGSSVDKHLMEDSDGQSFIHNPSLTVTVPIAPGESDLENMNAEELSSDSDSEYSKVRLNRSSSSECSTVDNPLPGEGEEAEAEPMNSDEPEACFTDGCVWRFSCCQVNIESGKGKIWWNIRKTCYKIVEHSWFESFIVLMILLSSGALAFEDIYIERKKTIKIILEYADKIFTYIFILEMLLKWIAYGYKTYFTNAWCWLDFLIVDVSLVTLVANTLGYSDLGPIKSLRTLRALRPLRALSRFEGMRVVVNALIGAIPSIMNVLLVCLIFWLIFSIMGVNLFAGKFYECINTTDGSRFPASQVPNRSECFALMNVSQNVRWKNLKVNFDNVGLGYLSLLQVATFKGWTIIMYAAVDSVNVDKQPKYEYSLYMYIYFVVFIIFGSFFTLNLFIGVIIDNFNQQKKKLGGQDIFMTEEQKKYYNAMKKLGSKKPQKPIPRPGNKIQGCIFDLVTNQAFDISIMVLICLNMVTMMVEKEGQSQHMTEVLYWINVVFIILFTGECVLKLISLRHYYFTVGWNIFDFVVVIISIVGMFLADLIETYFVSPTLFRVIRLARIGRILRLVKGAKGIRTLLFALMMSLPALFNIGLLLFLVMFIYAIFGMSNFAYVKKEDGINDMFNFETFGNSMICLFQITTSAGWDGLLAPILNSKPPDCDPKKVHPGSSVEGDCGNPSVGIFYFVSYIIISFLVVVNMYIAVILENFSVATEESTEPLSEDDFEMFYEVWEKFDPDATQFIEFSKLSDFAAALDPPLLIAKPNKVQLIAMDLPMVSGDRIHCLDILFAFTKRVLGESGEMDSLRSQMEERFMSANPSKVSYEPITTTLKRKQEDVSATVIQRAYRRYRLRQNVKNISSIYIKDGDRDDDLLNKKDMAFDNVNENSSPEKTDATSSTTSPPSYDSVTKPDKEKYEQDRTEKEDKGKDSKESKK

Nav1.2 [2] = molecular target: T2, Nav1.2 (Rattus norvegicus, UniProt P04775); experiment: cell-based; conditions: EP (electrophysiology)
Nav1.7 [3] = molecular target: T1, Nav1.7; conditions: Table 2, natural toxins, from WO 2012/004664 A2; cited from earlier work
Target sequence in this assay (Q15858 whole entry): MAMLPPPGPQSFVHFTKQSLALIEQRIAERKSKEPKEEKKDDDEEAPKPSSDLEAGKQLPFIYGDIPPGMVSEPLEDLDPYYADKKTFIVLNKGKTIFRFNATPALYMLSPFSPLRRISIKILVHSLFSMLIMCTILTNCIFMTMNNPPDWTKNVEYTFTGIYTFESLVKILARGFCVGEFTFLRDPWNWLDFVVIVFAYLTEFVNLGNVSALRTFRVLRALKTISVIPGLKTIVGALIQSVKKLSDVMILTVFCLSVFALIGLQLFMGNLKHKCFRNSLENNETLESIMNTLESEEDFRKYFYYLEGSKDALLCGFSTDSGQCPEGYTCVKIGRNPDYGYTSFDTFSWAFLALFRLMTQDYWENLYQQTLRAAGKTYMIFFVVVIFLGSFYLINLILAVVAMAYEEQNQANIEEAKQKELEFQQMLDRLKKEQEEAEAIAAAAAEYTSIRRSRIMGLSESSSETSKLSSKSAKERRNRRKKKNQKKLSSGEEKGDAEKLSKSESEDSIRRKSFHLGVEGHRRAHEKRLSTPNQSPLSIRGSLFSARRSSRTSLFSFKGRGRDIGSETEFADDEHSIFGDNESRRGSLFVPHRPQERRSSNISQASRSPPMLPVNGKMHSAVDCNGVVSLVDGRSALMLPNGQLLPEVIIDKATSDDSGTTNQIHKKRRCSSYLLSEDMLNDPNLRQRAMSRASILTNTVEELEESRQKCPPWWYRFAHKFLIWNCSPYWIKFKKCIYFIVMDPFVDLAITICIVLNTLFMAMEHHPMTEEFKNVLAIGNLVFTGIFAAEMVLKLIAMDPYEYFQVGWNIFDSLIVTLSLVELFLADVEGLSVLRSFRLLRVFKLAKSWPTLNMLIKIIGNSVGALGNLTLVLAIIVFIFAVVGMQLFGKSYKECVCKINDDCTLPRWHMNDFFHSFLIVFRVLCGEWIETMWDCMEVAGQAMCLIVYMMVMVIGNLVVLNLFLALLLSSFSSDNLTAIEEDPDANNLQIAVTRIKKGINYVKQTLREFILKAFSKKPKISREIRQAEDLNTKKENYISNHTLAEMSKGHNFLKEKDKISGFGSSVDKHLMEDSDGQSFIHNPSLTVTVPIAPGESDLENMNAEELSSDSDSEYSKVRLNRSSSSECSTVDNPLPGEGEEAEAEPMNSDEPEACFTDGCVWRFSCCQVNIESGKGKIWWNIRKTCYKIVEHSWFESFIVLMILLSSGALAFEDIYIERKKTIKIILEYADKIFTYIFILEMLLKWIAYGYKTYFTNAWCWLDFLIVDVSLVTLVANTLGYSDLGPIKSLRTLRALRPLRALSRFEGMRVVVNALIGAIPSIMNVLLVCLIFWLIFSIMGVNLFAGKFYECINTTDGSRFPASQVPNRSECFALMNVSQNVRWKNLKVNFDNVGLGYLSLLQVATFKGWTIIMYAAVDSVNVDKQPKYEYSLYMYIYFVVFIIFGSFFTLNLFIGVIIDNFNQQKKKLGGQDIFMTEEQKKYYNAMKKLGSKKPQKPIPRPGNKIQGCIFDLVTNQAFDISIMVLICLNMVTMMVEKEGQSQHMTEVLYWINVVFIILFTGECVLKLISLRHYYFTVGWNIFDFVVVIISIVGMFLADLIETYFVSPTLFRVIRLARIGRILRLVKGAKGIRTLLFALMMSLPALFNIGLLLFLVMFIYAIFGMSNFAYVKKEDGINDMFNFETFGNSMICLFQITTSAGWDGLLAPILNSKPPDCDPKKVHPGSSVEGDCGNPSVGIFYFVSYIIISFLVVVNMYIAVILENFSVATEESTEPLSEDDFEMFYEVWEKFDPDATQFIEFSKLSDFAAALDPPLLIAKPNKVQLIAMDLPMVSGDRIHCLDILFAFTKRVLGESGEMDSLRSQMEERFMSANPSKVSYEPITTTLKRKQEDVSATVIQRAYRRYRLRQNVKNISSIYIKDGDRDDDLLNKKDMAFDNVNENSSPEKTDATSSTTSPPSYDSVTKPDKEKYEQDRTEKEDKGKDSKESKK

Nav1.2 [4] = molecular target: T2, Nav1.2; conditions: cited from earlier work
Nav1.2 [5] = molecular target: Nav1.2 (Homo sapiens, UniProt Q99250); conditions: read-out: TTX IC50; cited from earlier work
Nav1.8 = Nav1.8 (Homo sapiens, UniProt Q9Y5Y9); conditions: read-out: TTX IC50; cited from earlier work
Nav1.9 = Nav1.9 (Homo sapiens, UniProt Q9UI33); conditions: read-out: TTX IC50; cited from earlier work
Nav1.6 = Nav1.6 (Homo sapiens, UniProt Q9UQD0); conditions: read-out: TTX IC50; cited from earlier work
Nav1.1 = Nav1.1 (Homo sapiens, UniProt P35498); conditions: read-out: TTX IC50; cited from earlier work
Nav1.3 = Nav1.3 (Homo sapiens, UniProt Q9NY46); conditions: read-out: TTX IC50; cited from earlier work
[6] = FLIPR, read-out: Nav1.7 IC50 FLIPR
[7] = Table 2, natural toxins, from WO 2012/004664 A2

Compound	IC50 (Nav1.7 [1]; [6]) [nM]	IC50 (Nav1.7 [3]) [nM]	IC50 (Nav1.2 [4]; [7]) [nM]	other results
CSCC[C@@H]1NC(=O)CNC(=O)[C@H](CCC(=O)O)NC(=O)[C@@H]2CSSC[C@H](NC(=O)[C@@H](N)Cc3ccc(O)cc3)C(=O)N[C@@H](CCC(N)=O)C(=O)N[C@@H](CCCCN)C(=O)N[C@@H](Cc3c[nH]c4ccccc34)C(=O)N[C@@H](CCSC)C(=O)N[C@@H](Cc3c[nH]c4ccccc34)C(=O)N[C@@H]([C@@H](C)O)C(=O)N[C@H]3CSSC[C@H](NC(=O)[C@H](C(C)C)NC1=O)C(=O)N[C@@H](CCCNC(=N)N)C(=O)N[C@@H](CC(C)C)C(=O)N[C@@H](Cc1c[nH]c4ccccc14)C(=O)N[C@H](C(=O)N[C@@H](CCCCN)C(=O)N[C@@H](CCCCN)C(=O)N[C@@H](CCCCN)C(=O)N[C@@H](CC(C)C)C(=O)N[C@@H](Cc1c[nH]c4ccccc14)C(=O)NC1CCCCC1)CSSC[C@H](NC(=O)[C@H](CCCCN)NC(=O)[C@H](CCCNC(=N)N)NC(=O)[C@H](CCC(=O)O)NC(=O)[C@H](CO)NC(=O)[C@H](CC(=O)O)NC3=O)C(=O)N2 [Protoxin II-NHcyclohexyl]	22	–	–	–
CSCC[C@@H]1NC(=O)CNC(=O)[C@H](CCC(=O)O)NC(=O)[C@@H]2CSSC[C@H](NC(=O)[C@@H](N)Cc3ccc(O)cc3)C(=O)N[C@@H](CCC(N)=O)C(=O)N[C@@H](CCCCN)C(=O)N[C@@H](Cc3c[nH]c4ccccc34)C(=O)N[C@@H](CCSC)C(=O)N[C@@H](Cc3c[nH]c4ccccc34)C(=O)N[C@@H]([C@@H](C)O)C(=O)N[C@H]3CSSC[C@H](NC(=O)[C@H](C(C)C)NC1=O)C(=O)N[C@@H](CCCNC(=N)N)C(=O)N[C@@H](CC(C)C)C(=O)N[C@@H](Cc1c[nH]c4ccccc14)C(=O)N[C@H](C(=O)N[C@@H](CCCCN)C(=O)N[C@@H](CCCCN)C(=O)N[C@@H](CCCCN)C(=O)N[C@@H](CC(C)C)C(=O)N[C@@H](Cc1c[nH]c4ccccc14)C(=O)O)CSSC[C@H](NC(=O)[C@H](CCCCN)NC(=O)[C@H](CCCNC(=N)N)NC(=O)[C@H](CCC(=O)O)NC(=O)[C@H](CO)NC(=O)[C@H](CC(=O)O)NC3=O)C(=O)N2 [Protoxin II]	–	–	–	IC50 (Nav1.2 [2]): 100 nM
CNC(=O)[C@H](Cc1c[nH]c2ccccc12)NC(=O)[C@H](CC(C)C)NC(=O)[C@H](CCCCN)NC(=O)[C@H](CCCCN)NC(=O)[C@H](CCCCN)NC(=O)[C@@H]1CSSC[C@@H]2NC(=O)[C@H](CCCCN)NC(=O)[C@H](CCCNC(=N)N)NC(=O)[C@H](CCC(=O)O)NC(=O)[C@H](CO)NC(=O)[C@H](CC(=O)O)NC(=O)[C@@H]3CSSC[C@H](NC(=O)[C@H](C(C)C)NC(=O)[C@H](CCSC)NC(=O)CNC(=O)[C@H](CCC(=O)O)NC(=O)[C@H](CSSC[C@H](NC(=O)[C@@H](N)Cc4ccc(O)cc4)C(=O)N[C@@H](CCC(N)=O)C(=O)N[C@@H](CCCCN)C(=O)N[C@@H](Cc4c[nH]c5ccccc45)C(=O)N[C@@H](CCSC)C(=O)N[C@@H](Cc4c[nH]c5ccccc45)C(=O)N[C@@H]([C@@H](C)O)C(=O)N3)NC2=O)C(=O)N[C@@H](CCCNC(=N)N)C(=O)N[C@@H](CC(C)C)C(=O)N[C@@H](Cc2c[nH]c3ccccc23)C(=O)N1 [Protoxin II-NHMe]	64.3	–	–	–
COC(=O)[C@H](Cc1c[nH]c2ccccc12)NC(=O)[C@H](CC(C)C)NC(=O)[C@H](CCCCN)NC(=O)[C@H](CCCCN)NC(=O)[C@H](CCCCN)NC(=O)[C@@H]1CSSC[C@@H]2NC(=O)[C@H](CCCCN)NC(=O)[C@H](CCCNC(=N)N)NC(=O)[C@H](CCC(=O)O)NC(=O)[C@H](CO)NC(=O)[C@H](CC(=O)O)NC(=O)[C@@H]3CSSC[C@H](NC(=O)[C@H](C(C)C)NC(=O)[C@H](CCSC)NC(=O)CNC(=O)[C@H](CCC(=O)O)NC(=O)[C@H](CSSC[C@H](NC(=O)[C@@H](N)Cc4ccc(O)cc4)C(=O)N[C@@H](CCC(N)=O)C(=O)N[C@@H](CCCCN)C(=O)N[C@@H](Cc4c[nH]c5ccccc45)C(=O)N[C@@H](CCSC)C(=O)N[C@@H](Cc4c[nH]c5ccccc45)C(=O)N[C@@H]([C@@H](C)O)C(=O)N3)NC2=O)C(=O)N[C@@H](CCCNC(=N)N)C(=O)N[C@@H](CC(C)C)C(=O)N[C@@H](Cc2c[nH]c3ccccc23)C(=O)N1 [Protoxin II-OMe]	8.4	–	–	–
CSCC[C@@H]1NC(=O)CNC(=O)[C@H](CCC(=O)O)NC(=O)[C@@H]2CSSC[C@H](NC(=O)[C@@H](N)Cc3ccc(O)cc3)C(=O)N[C@@H](CCC(N)=O)C(=O)N[C@@H](CCCCN)C(=O)N[C@@H](Cc3c[nH]c4ccccc34)C(=O)N[C@@H](CCSC)C(=O)N[C@@H](Cc3c[nH]c4ccccc34)C(=O)N[C@@H]([C@@H](C)O)C(=O)N[C@H]3CSSC[C@H](NC(=O)[C@H](C(C)C)NC1=O)C(=O)N[C@@H](CCCNC(=N)N)C(=O)N[C@@H](CC(C)C)C(=O)N[C@@H](Cc1c[nH]c4ccccc14)C(=O)N[C@H](C(=O)N[C@@H](CCCCN)C(=O)N[C@@H](CCCCN)C(=O)N[C@@H](CCCCN)C(=O)N[C@@H](CC(C)C)C(=O)N[C@@H](Cc1c[nH]c4ccccc14)C(=O)N[C@H](Cc1c[nH]c4ccccc14)C(=O)O)CSSC[C@H](NC(=O)[C@H](CCCCN)NC(=O)[C@H](CCCNC(=N)N)NC(=O)[C@H](CCC(=O)O)NC(=O)[C@H](CO)NC(=O)[C@H](CC(=O)O)NC3=O)C(=O)N2 [Protoxin II-D-Trp]	16.5	–	–	–
YCQKWLWTCDSERKCCEDMVCRLWCKKRL [GsAF I]	–	249	255 ± 43	–
CSCC[C@@H]1NC(=O)CNC(=O)[C@H](CCC(=O)O)NC(=O)[C@@H]2CSSC[C@H](NC(=O)[C@@H](N)Cc3ccc(O)cc3)C(=O)N[C@@H](CCC(N)=O)C(=O)N[C@@H](CCCCN)C(=O)N[C@@H](Cc3c[nH]c4ccccc34)C(=O)N[C@@H](CCSC)C(=O)N[C@@H](Cc3c[nH]c4ccccc34)C(=O)N[C@@H]([C@@H](C)O)C(=O)N[C@H]3CSSC[C@H](NC(=O)[C@H](C(C)C)NC1=O)C(=O)N[C@@H](CCCNC(=N)N)C(=O)N[C@@H](CC(C)C)C(=O)N[C@@H](Cc1c[nH]c4ccccc14)C(=O)N[C@H](C(=O)N[C@@H](CCCCN)C(=O)N[C@@H](CCCCN)C(=O)N[C@@H](CCCCN)C(=O)N[C@@H](CC(C)C)C(=O)N[C@@H](Cc1c[nH]c4ccccc14)C(=O)Nc1ccccc1)CSSC[C@H](NC(=O)[C@H](CCCCN)NC(=O)[C@H](CCCNC(=N)N)NC(=O)[C@H](CCC(=O)O)NC(=O)[C@H](CO)NC(=O)[C@H](CC(=O)O)NC3=O)C(=O)N2 [Protoxin II-NHanaline]	–	–	–	IC50 (Nav1.7 [1]): 5.1 nM
YCQKWMWTCDEERKCCEGLVCRLWCKRIINM [GsMTx II/PaTX II]	–	260	2700	–
YCQKWMWTCDEERKCCEGLVCRLWCKKKIEEG [VsTx II]	–	9260	42400	–
YCQKWMWTCDSARKCCEGLVCRLWCKKII [PaTx I]	–	–	–	IC50 (Nav1.2 [4]): 5000 nM
YCQKWMWTCDSERKCCEGYVCELWCKYNL [JxTx XII]	–	–	–	IC50 (Nav1.2 [4]): 73900 nM
YCQKWMWTCDSKRKCCEDMVCQLWCKKRL [GrTx I]	–	1010	2690	–
YCQKWMWTCDEERKCCEGLVCRLWCKKKIEW [GsAF II]	–	70	410 ± 20	–
CSCC[C@@H]1NC(=O)CNC(=O)[C@H](CCC(=O)O)NC(=O)[C@@H]2CSSC[C@H](NC(=O)[C@@H](N)Cc3ccc(O)cc3)C(=O)N[C@@H](CCC(N)=O)C(=O)N[C@@H](CCCCN)C(=O)N[C@@H](Cc3c[nH]c4ccccc34)C(=O)N[C@@H](CCSC)C(=O)N[C@@H](Cc3c[nH]c4ccccc34)C(=O)N[C@@H]([C@@H](C)O)C(=O)N[C@H]3CSSC[C@H](NC(=O)[C@H](C(C)C)NC1=O)C(=O)N[C@@H](CCCNC(=N)N)C(=O)N[C@@H](CC(C)C)C(=O)N[C@@H](Cc1c[nH]c4ccccc14)C(=O)N[C@H](C(=O)N[C@@H](CCCCN)C(=O)N[C@@H](CCCCN)C(=O)N[C@@H](CCCCN)C(=O)N[C@@H](CC(C)C)C(=O)N[C@H](Cc1c[nH]c4ccccc14)C(=O)NC1CCCCC1)CSSC[C@H](NC(=O)[C@H](CCCCN)NC(=O)[C@H](CCCNC(=N)N)NC(=O)[C@H](CCC(=O)O)NC(=O)[C@H](CO)NC(=O)[C@H](CC(=O)O)NC3=O)C(=O)N2 [Protoxin II (D)-NHcyclohexyl]	31	–	–	–
NC1=N[C@H](O)[C@H]2[C@H]3O[C@]4(O)O[C@@H]([C@@H](O)[C@@]2(N1)[C@@H]4O)[C@]3(O)CO [TTX, tetrodotoxin]	–	–	–	IC50 (Nav1.2 [5]): 10 nM; IC50 (Nav1.8): 50000 nM; IC50 (Nav1.9): 1000 nM; IC50 (Nav1.6): 6 nM; IC50 (Nav1.1): 10 nM; IC50 (Nav1.3): 15 nM
YCQKWMWTCDSKRACCEGLRCKLWCRKII [JzTx V]	–	–	157 ± 20	–

Source: patent publication US20180022786A1, “NOVEL SODIUM CHANNEL BLOCKING PEPTIDES AND THE USE THEREOF” (priority 2012, published 2018)
